The values below are quoted from earlier work in EP4398053A1, “CONTROL METHOD FOR […] OF A DYNAMIC SYSTEM AND […]” (Universidade de Aveiro, priority 2023, dated 2024).

The conditions of this series: drug elimination within the body; drug-specific model parameter.

On to `O=P1(N(CCCl)CCCl)NCCCO1` (stereo not shown) [Cyclophosphamide], for which the “drug elimination rate λ” value is 4.16 day⁻¹.
